Source: patent US8956622B2, “Peptidic antagonists of class III semaphorins/neuropilins complexes” (INSERM—Institut National de la Sante et de la Recherche …, priority 2005, dated 2015)

Biological target: T1, NRP1 (Rattus norvegicus, UniProt Q9QWJ9)
T1 construct: Rat C6 glioma cells, which express semaphorin receptors; endogenous in cells; host or cells: rat C6 glioma cells
Test: AP-Sema3A binding to its receptor NRP1 on C6 glioma cells (luminescence)
Experimental: In order to investigate the NRP1 transmembrane domain role in the linkage NRP1-class III semaphorins, the binding of the ligand Sema3A to its receptor NRP1 on glioma cells was measured in the presence or not of the transmembrane domain peptide of NRP1 (pTM-NRP1 peptide; SEQ ID NO. 1) or of a mutated peptide (mpTM-NRP1; SEQ ID NO. 20, […]). These pTM-NRP1 Peptides have been synthesized by automatic peptidic synthesis (Fmoc chemistry, APPLIED SYSTEM), and analyzed by mass spectrometry. Peptides purity has been estimated by RP-HPLC (BECKMAN) as higher than 90%.
Rat C6 glioma cells, which express semaphorin receptors, has been used to determine the binding capacity of AP-Sema3A, a secreted alkaline phosphatase version of Sema 3A (ADAMS et al., 1997, BAGNARD et al., 1998). These cells were grown and plated in MEM medium (GIBCO) with 10% foetal calf serum (PERBIO), glutamine 0.5 mM (GIBCO) and antibiotics: 100 U/ml penicillin and 100 μg/ml streptomycin (SIGMA).
C6 Cells were cultured in 96-well plates and incubated with or without freshly diluted pTM-NRP1 or pTM-NRP1^mut peptides (10^−12 M to 10^−10 M) for 1 hour at 37° C. The culture medium has been then replaced by conditioned medium of HEK cells stably transfected with a construction expressing AP-Sema 3A (ADAMS et al., EMBO J., vol. 16(20), p: 6077-86, 1997; BAGNARD et al., 1998). Conditioned medium from HEK non transfected cells has been used as an internal control. The pTM-NRP1 Peptide has been synthesized by automatic peptidic synthesis (Fmoc chemistry, APPLIED SYSTEM), and analyzed by mass spectrometry. Peptides purity has been estimated by RP-HPLC (BECKMAN) as higher than 90%, the cells have been washed with PBS and incubated with 50 μl of alkaline phosphatase luminescent substrate (AMERSHAM). The luminescence has been read after 15 minutes with MICROLUMAT PLUS system (BERTHOLD TECHNOLOGIES) according to the manufacturer's instructions. Experiments were done 4 times for each peptide.

Q: Which “decrease of binding of AP-Sema3A to NRP1 compared to the absence of peptide” value (C6 cells, peptide 10^−10 M) does the source give for ILITIIAMSALGVLLGAVCGVVL [pTM-NRP1] here?
A: The value was “about 50%”.

Q: What about the “binding of AP-Sema3A to its receptor NRP1 on C6 cells” value (peptide 10^−12 M to 10^−10 M, 1 hour) of the same sequence?
A: The value was “blocked in a dose dependent manner”.
